As usually defined, the IC50 is the concentration at which inhibition is half-maximal. High values mean lower potency, low ones higher potency.

Among the data in patent publication US20230167150A1, “CD33 LIGANDS SUITABLE FOR INCORPORATION INTO CARRIERS” (GLYCOMIMETICS, INC., priority 2020, published 2023) are IC50 values, retold here.

The assay addresses T1, CD33 (Homo sapiens, UniProt P20138).
T1 construct: purchased BioLegend 750106
In words: CD33 activity competitive binding assay (ELISA). Particulars: immobilized CD33-Fc; competition with Neu5Acα2-3Galβ1-3GalNAc-PAA-biotin; streptavidin/horseradish peroxidase, TMB, absorbance 450 nm. The method, then:
The assay to screen for and characterize glycomimetic ligands of CD33 is a competitive binding assay, which allows the determination of IC50 values. CD33-Fc (BioLegend catalog item 750106) was immobilized in 96 well microtiter plates by incubation at 4° C. overnight. To reduce non-specific binding, bovine serum albumin was added to each well and incubated at room temperature for 3 hours. The plate was washed and serial dilutions of the test compounds were added to the wells in the presence of biotinylated polyacrylamide conjugated with Neu5Acα2-3Galβ1-3GalNAc-PAA-biotin (GlycoTech catalog item 01-088). After incubation at room temperature for 2 hours and washing, streptavidin/horseradish peroxidase was added to each well and incubated at room temperature for 30 minutes followed by an additional wash.
To determine the amount of glycopolymer bound to the immobilized CD33, the peroxidase substrate […] tetramethylbenzidine (TMB) was added. After 5 minutes, the enzyme reaction was stopped by the addition of H3PO4, and the absorbance of light at a wavelength of 450 nm was determined. The concentration of test compound required to inhibit binding by 50% was determined and reported as the IC50 value.
(ELISA stands for enzyme-linked immunosorbent assay.)

T1 sequence (P20138 18-364): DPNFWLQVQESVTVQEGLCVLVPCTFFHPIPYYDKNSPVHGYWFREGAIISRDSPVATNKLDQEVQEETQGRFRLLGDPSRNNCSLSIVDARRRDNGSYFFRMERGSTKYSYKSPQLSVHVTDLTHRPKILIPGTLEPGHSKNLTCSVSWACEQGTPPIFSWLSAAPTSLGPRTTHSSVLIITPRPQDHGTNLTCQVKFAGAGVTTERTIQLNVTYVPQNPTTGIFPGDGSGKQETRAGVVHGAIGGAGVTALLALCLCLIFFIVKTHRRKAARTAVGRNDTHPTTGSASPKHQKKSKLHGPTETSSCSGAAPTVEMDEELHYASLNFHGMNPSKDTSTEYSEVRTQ

Consider `Cc1cc(C(=O)NC[C@@H](O)[C@@H](O)C2O[C@@](OCCCN(Cc3ccccc3)C(=O)CCOCCOCCOCCOCCOCCOCCN=[N+]=[N-])(C(=O)O)CC(O)[C@H]2NC(=O)Cn2cc(C3CCCCC3)nn2)cc(C)c1O` (some centres unmarked) [Compound 13], for which the 50% inhibitory concentration (IC50) turned out to be 54 µM.
`Cc1cc(C(=O)NC[C@@H](O)[C@@H](O)C2O[C@@](OCCCN(CCc3ccccc3)C(=O)CCOCCOCCOCCOCCOCCOCCN=[N+]=[N-])(C(=O)O)CC(O)[C@H]2NC(=O)Cn2cc(C3CCCCC3)nn2)cc(C)c1O` (some centres unmarked) [Compound 15] gave an IC50 of 27 µM.
